Key:
Conditions in all cases: incubation time: 72 h
Hs578T [1] = test: normalised viability (% of control), CellTiter-Blue; higher = more viable cells (about 100 = DMSO control)
Method in brief: (§1)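 Each entry is normalised viability at a single listed concentration within a series. It comes from breast cancer cell lines incubated 72 h with compound in 384-well plates, then measured with CellTiter-Blue fluorescence at 560/590 nm. Every plate was normalised between vehicle (100) and a positive kill control (0).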

BT-549 [2] = test: as above
Method in brief: as §1

MDA-MB-231 [3] = test: as above
Method in brief: as §1

DU-4475 [4] = test: as above
Method in brief: as §1

CAL-148 [5] = test: as above
Method in brief: as §1

MDA-MB-468 [6] = test: as above
Method in brief: as §1

MDA-MB-453 [7] = test: as above
Method in brief: as §1

CAL-120 = test: as above
Method in brief: as §1

MFM-223 = test: as above
Method in brief: as §1

HCC1937 = test: drug sensitivity score (DSS), CellTox Green (DSS (AUC-based score)); higher = stronger drug effect (viability inhibition or cytotoxicity); extreme values may be limits of the assay
Method in brief: (§2)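 Compound was dispensed into 384-well plates at 5 concentrations in 10-fold steps spanning a 10,000-fold range chosen for each compound, and 20 µl of breast cancer cell suspension was added before 72 h of incubation. CellTox Green fluorescence was read at 485/520 nm, followed by CellTiter-Glo luminescence after 10 min at room temperature. Values on each plate were normalised to 0.1 % DMSO and a positive kill control. The drug sensitivity score came from the area under the fitted dose-response curve.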

MCF-10A = test: as above
Method in brief: as §2

HDQ-P1 = test: as above
Method in brief: as §2

Hs578T [8] = test: as above
Method in brief: as §2

BT-549 [9] = test: as above
Method in brief: as §2

MDA-MB-231 [10] = test: as above
Method in brief: as §2

MDA-MB-436 = test: as above
Method in brief: as §2

DU-4475 [11] = test: as above
Method in brief: as §2

BT-474 = test: as above
Method in brief: as §2

CAL-148 [12] = test: as above
Method in brief: as §2

MDA-MB-468 [13] = test: as above
Method in brief: as §2

HCC1599 = test: as above
Method in brief: as §2

MDA-MB-453 [14] = test: as above
Method in brief: as §2

HCC1143 = test: as above
Method in brief: as §2

CAL-85-1 = test: as above
Method in brief: as §2

CAL-51 = test: as above
Method in brief: as §2

## CC(C)(C)NC(=O)[C@H]1CC[C@H]2[C@@H]3CC[C@H]4NC(=O)C=C[C@]4(C)[C@H]3CC[C@]12C [Finasteride]
Hs578T [1]; 10 nM
  normalised viability: 64.2%
Hs578T [1]; 1000 nM
  normalised viability: 108%
Hs578T [1]; 10000 nM
  normalised viability: 117%
BT-549 [2]; 10 nM
  normalised viability: 89.8%
BT-549 [2]; 1000 nM
  normalised viability: 99%
BT-549 [2]; 10000 nM
  normalised viability: 98.5%
MDA-MB-231 [3]; 10 nM
  normalised viability: 98.2%
MDA-MB-231 [3]; 1000 nM
  normalised viability: 98.5%
MDA-MB-231 [3]; 10000 nM
  normalised viability: 122%
DU-4475 [4]; 3 nM
  normalised viability: 97.7%
DU-4475 [4]; 30 nM
  normalised viability: 106%
DU-4475 [4]; 100 nM
  normalised viability: 103%
CAL-148 [5]; 3 nM
  normalised viability: 95.1%
CAL-148 [5]; 30 nM
  normalised viability: 96.8%
CAL-148 [5]; 100 nM
  normalised viability: 102%
MDA-MB-468 [6]; 10 nM
  normalised viability: 106%
MDA-MB-468 [6]; 1000 nM
  normalised viability: 99.2%
MDA-MB-468 [6]; 10000 nM
  normalised viability: 121%
MDA-MB-453 [7]; 3 nM
  normalised viability: 117%
MDA-MB-453 [7]; 30 nM
  normalised viability: 98.2%
MDA-MB-453 [7]; 100 nM
  normalised viability: 112%
CAL-120; 10 nM
  normalised viability: 108%
CAL-120; 1000 nM
  normalised viability: 108%
CAL-120; 10000 nM
  normalised viability: 116%
MFM-223; 10 nM
  normalised viability: 106%
MFM-223; 1000 nM
  normalised viability: 97.7%
MFM-223; 10000 nM
  normalised viability: 41.8%
HCC1937
  drug sensitivity score: 0
MCF-10A
  drug sensitivity score: 0
HDQ-P1
  drug sensitivity score: 0
Hs578T [8]
  drug sensitivity score: 2.04
BT-549 [9]
  drug sensitivity score: 0
MDA-MB-231 [10]
  drug sensitivity score: 0
MDA-MB-436
  drug sensitivity score: 0
DU-4475 [11]
  drug sensitivity score: 0
BT-474
  drug sensitivity score: 0
CAL-148 [12]
  drug sensitivity score: 0
MDA-MB-468 [13]
  drug sensitivity score: 0
HCC1599
  drug sensitivity score: 0
MDA-MB-453 [14]
  drug sensitivity score: 0
HCC1143
  drug sensitivity score: 0
CAL-85-1
  drug sensitivity score: 0
CAL-51
  drug sensitivity score: 0

## CC(C)C[C@H](NC(=O)[C@@H](COC(C)(C)C)NC(=O)[C@H](Cc1ccc(O)cc1)NC(=O)[C@H](CO)NC(=O)[C@H](Cc1c[nH]c2ccccc12)NC(=O)[C@H](Cc1cnc[nH]1)NC(=O)[C@@H]1CCC(=O)N1)C(=O)N[C@@H](CCCNC(=N)N)C(=O)N1CCC[C@H]1C(=O)NNC(N)=O [Goserelin]
Hs578T [1]; 10 nM
  normalised viability: 105%
Hs578T [1]; 1000 nM
  normalised viability: 98%
Hs578T [1]; 10000 nM
  normalised viability: 104%
BT-549 [2]; 10 nM
  normalised viability: 85.9%
BT-549 [2]; 1000 nM
  normalised viability: 88%
BT-549 [2]; 10000 nM
  normalised viability: 103%
MDA-MB-231 [3]; 10 nM
  normalised viability: 102%
MDA-MB-231 [3]; 1000 nM
  normalised viability: 110%
MDA-MB-231 [3]; 10000 nM
  normalised viability: 114%
DU-4475 [4]; 3 nM
  normalised viability: 91.4%
DU-4475 [4]; 30 nM
  normalised viability: 84%
DU-4475 [4]; 100 nM
  normalised viability: 111%
CAL-148 [5]; 3 nM
  normalised viability: 92%
CAL-148 [5]; 30 nM
  normalised viability: 97%
CAL-148 [5]; 100 nM
  normalised viability: 98.9%
MDA-MB-468 [6]; 10 nM
  normalised viability: 96.5%
MDA-MB-468 [6]; 1000 nM
  normalised viability: 94.5%
MDA-MB-468 [6]; 10000 nM
  normalised viability: 108%
MDA-MB-453 [7]; 3 nM
  normalised viability: 115%
MDA-MB-453 [7]; 30 nM
  normalised viability: 101%
MDA-MB-453 [7]; 100 nM
  normalised viability: 102%
CAL-120; 10 nM
  normalised viability: 96.4%
CAL-120; 1000 nM
  normalised viability: 93.1%
CAL-120; 10000 nM
  normalised viability: 94.4%
MFM-223; 10 nM
  normalised viability: 92.1%
MFM-223; 1000 nM
  normalised viability: 87.8%
MFM-223; 10000 nM
  normalised viability: 100%
HCC1937
  drug sensitivity score: 0
MCF-10A
  drug sensitivity score: 0
HDQ-P1
  drug sensitivity score: 0.917
Hs578T [8]
  drug sensitivity score: 1.59
BT-549 [9]
  drug sensitivity score: 0
MDA-MB-231 [10]
  drug sensitivity score: 0
MDA-MB-436
  drug sensitivity score: 0
DU-4475 [11]
  drug sensitivity score: 0
BT-474
  drug sensitivity score: 0.105
CAL-148 [12]
  drug sensitivity score: 0
MDA-MB-468 [13]
  drug sensitivity score: 0
HCC1599
  drug sensitivity score: 0
MDA-MB-453 [14]
  drug sensitivity score: 0
HCC1143
  drug sensitivity score: 0
CAL-85-1
  drug sensitivity score: 0
CAL-51
  drug sensitivity score: 0

Reference: the supplement of paper PMC4862054
